In ChEMBL document CHEMBL1795325, “Studying synergism of methyl linked cyclohexyl thiophenes with triazole: synthesis and their cdk5/p25 inhibition activity” (Eur J Med Chem, 2011):

Tested on: Vero
Test: Cytotoxicity against african green monkey Vero C1008 cells at 6.25 to 50 ug/ml by neutral red uptake assay
Assay type: cell-based
Settings: chlorocebus sabaeus

| SMILES | Activity |
| --- | --- |
| CC(=O)Nn1c(Cc2c(NC(=O)CCl)sc3c2CCCC3)nnc1SCC#N | Non-toxic |
| O=C(CSc1nnc(Cc2c(NC(=O)CCl)sc3c2CCCC3)n1NC(=O)c1ccc(Cl)cc1)N/N=C/c1ccccc1 | Non-toxic |
| NNC(=O)CSc1nnc(Cc2c(NC(=O)CCl)sc3c2CCCC3)n1NC(=O)c1ccc(Cl)cc1 | Non-toxic |
| O=C(CSc1nnc(Cc2c(NC(=O)CCl)sc3c2CCCC3)n1NC(=O)c1ccccc1)N/N=C/c1ccccc1 | Non-toxic |
| N#CCSc1nnc(Cc2c(NC(=O)CCl)sc3c2CCCC3)n1NC(=O)c1ccc(Cl)cc1 | Non-toxic |
| NNC(=O)CSc1nnc(Cc2c(NC(=O)CCl)sc3c2CCCC3)n1NC(=O)c1ccccc1 | Non-toxic |
| Nn1c(S)nnc1Cc1c(NC(=O)CCl)sc2c1CCCC2 | Non-toxic |
| CC(=O)Nn1c(Cc2c(NC(=O)CCl)sc3c2CCCC3)nnc1SCC(=O)NNC(=O)c1ccccc1 | Non-toxic |
| CC(=O)Nn1c(Cc2c(NC(=O)CCl)sc3c2CCCC3)nnc1SCC(=O)NN | Non-toxic |
| O=C(CCl)Nc1sc2c(c1Cc1nnc(SCSc3nnc(Cc4c(NC(=O)CCl)sc5c4CCCC5)n3NC(=O)c3ccc(Cl)cc3)n1NC(=O)c1ccc(Cl)cc1)CCCC2 | Non-toxic |
| CC(=O)Nn1c(Cc2c(NC(=O)CCl)sc3c2CCCC3)n[nH]c1=S | Non-toxic |
| O=C(CSc1nnc(Cc2c(NC(=O)CCl)sc3c2CCCC3)n1NC(=O)c1ccccc1)NNC(=O)c1ccccc1 | Non-toxic |
| CC(=O)Nn1c(Cc2c(NC(=O)CCl)sc3c2CCCC3)nnc1SCC(=O)NNC(=O)CCl | Non-toxic |
| COC(=O)CSc1nnc(Cc2c(NC(=O)CCl)sc3c2CCCC3)n1NC(C)=O | Non-toxic |
| Nn1c(S)nnc1CSc1nnc(Cc2c(NC(=O)CCl)sc3c2CCCC3)n1NC(=O)c1ccccc1 | Non-toxic |

Tested on: not listed separately
Test: Selectivity ratio, ratio of IC50 for CDK2/Cyclin E to IC50 for CDK5/p25
Settings: not given

| SMILES | Ratio IC50 |
| --- | --- |
| CC(=O)Nn1c(Cc2c(NC(=O)CCl)sc3c2CCCC3)nnc1SCC#N | 21.6 |
| CC(=O)Nc1sc2c(c1Cc1nnc(SCC(=O)NN)n1NC(=O)c1ccc(Cl)cc1)CCCC2 | 9.2 |
| O=C(CSc1nnc(Cc2c(NC(=O)CCl)sc3c2CCCC3)n1NC(=O)c1ccc(Cl)cc1)N/N=C/c1ccccc1 | 1.4 |
| NNC(=O)CSc1nnc(Cc2c(NC(=O)CCl)sc3c2CCCC3)n1NC(=O)c1ccc(Cl)cc1 | 20.5 |
| O=C(CSc1nnc(Cc2c(NC(=O)CCl)sc3c2CCCC3)n1NC(=O)c1ccccc1)N/N=C/c1ccccc1 | > 17.5 |
| N#CCSc1nnc(Cc2c(NC(=O)CCl)sc3c2CCCC3)n1NC(=O)c1ccc(Cl)cc1 | 19.6 |
| NNC(=O)CSc1nnc(Cc2c(NC(=O)CCl)sc3c2CCCC3)n1NC(=O)c1ccccc1 | 13.2 |
| Nn1c(S)nnc1Cc1c(NC(=O)CCl)sc2c1CCCC2 | 1.2 |
| CC(=O)Nn1c(Cc2c(NC(=O)CCl)sc3c2CCCC3)nnc1SCC(=O)NN | 98.1 |

Target: Cyclin-dependent kinase 2/cyclin E1 (Homo sapiens, UniProt P24941)
Test: Inhibition of CDK2/Cyclin E by scintillation proximity assay
Assay type: protein-complex assay
Settings: not given

| SMILES | IC50 [nM] |
| --- | --- |
| CC(=O)Nn1c(Cc2c(NC(=O)CCl)sc3c2CCCC3)nnc1SCC#N | 1320 |
| CC(=O)Nc1sc2c(c1Cc1nnc(SCC(=O)NN)n1NC(=O)c1ccc(Cl)cc1)CCCC2 | 587 |
| O=C(CSc1nnc(Cc2c(NC(=O)CCl)sc3c2CCCC3)n1NC(=O)c1ccc(Cl)cc1)N/N=C/c1ccccc1 | 48 |
| NNC(=O)CSc1nnc(Cc2c(NC(=O)CCl)sc3c2CCCC3)n1NC(=O)c1ccc(Cl)cc1 | 799 |
| O=C(CSc1nnc(Cc2c(NC(=O)CCl)sc3c2CCCC3)n1NC(=O)c1ccccc1)N/N=C/c1ccccc1 | 560 |
| N#CCSc1nnc(Cc2c(NC(=O)CCl)sc3c2CCCC3)n1NC(=O)c1ccc(Cl)cc1 | 1140 |
| NNC(=O)CSc1nnc(Cc2c(NC(=O)CCl)sc3c2CCCC3)n1NC(=O)c1ccccc1 | 487 |
| Nn1c(S)nnc1Cc1c(NC(=O)CCl)sc2c1CCCC2 | 52 |
| CC(=O)Nn1c(Cc2c(NC(=O)CCl)sc3c2CCCC3)nnc1SCC(=O)NN | 5990 |

Target: Cyclin-dependent kinase 5/CDK5 activator 1 (Homo sapiens, UniProt Q00535)
Sequence (Q00535 whole entry): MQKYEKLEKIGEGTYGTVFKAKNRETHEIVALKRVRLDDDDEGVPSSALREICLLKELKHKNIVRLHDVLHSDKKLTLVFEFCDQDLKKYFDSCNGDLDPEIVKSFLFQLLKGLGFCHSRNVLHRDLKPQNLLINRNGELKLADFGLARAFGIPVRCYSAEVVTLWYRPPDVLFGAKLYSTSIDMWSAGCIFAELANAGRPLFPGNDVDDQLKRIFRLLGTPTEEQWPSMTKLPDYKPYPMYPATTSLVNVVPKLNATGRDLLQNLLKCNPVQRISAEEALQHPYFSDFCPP
Sequence (Q15078 whole entry, further chain): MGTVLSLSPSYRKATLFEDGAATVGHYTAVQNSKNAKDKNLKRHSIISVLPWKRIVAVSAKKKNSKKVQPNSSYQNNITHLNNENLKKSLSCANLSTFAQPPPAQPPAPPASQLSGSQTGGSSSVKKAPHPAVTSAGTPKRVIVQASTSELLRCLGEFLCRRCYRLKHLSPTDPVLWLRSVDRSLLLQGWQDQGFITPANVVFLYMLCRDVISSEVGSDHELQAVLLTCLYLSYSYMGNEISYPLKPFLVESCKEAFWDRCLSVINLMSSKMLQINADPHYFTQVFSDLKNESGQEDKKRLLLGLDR
Assay type: protein-complex assay
Settings: not given

| SMILES | IC50 [nM] |
| --- | --- |
| CC(=O)Nn1c(Cc2c(NC(=O)CCl)sc3c2CCCC3)nnc1SCC#N | 61 |
| CC(=O)Nc1sc2c(c1Cc1nnc(SCC(=O)NN)n1NC(=O)c1ccc(Cl)cc1)CCCC2 | 64 |
| O=C(CSc1nnc(Cc2c(NC(=O)CCl)sc3c2CCCC3)n1NC(=O)c1ccc(Cl)cc1)N/N=C/c1ccccc1 | 35 |
| NNC(=O)CSc1nnc(Cc2c(NC(=O)CCl)sc3c2CCCC3)n1NC(=O)c1ccc(Cl)cc1 | 39 |
| O=C(CSc1nnc(Cc2c(NC(=O)CCl)sc3c2CCCC3)n1NC(=O)c1ccccc1)N/N=C/c1ccccc1 | 32 |
| N#CCSc1nnc(Cc2c(NC(=O)CCl)sc3c2CCCC3)n1NC(=O)c1ccc(Cl)cc1 | 58 |
| NNC(=O)CSc1nnc(Cc2c(NC(=O)CCl)sc3c2CCCC3)n1NC(=O)c1ccccc1 | 37 |
| Nn1c(S)nnc1Cc1c(NC(=O)CCl)sc2c1CCCC2 | 43 |
| CC(=O)Nn1c(Cc2c(NC(=O)CCl)sc3c2CCCC3)nnc1SCC(=O)NNC(=O)c1ccccc1 | 363 |
| CC(=O)Nn1c(Cc2c(NC(=O)CCl)sc3c2CCCC3)nnc1SCC(=O)NN | 61 |
| O=C(CCl)Nc1sc2c(c1Cc1nnc(SCSc3nnc(Cc4c(NC(=O)CCl)sc5c4CCCC5)n3NC(=O)c3ccc(Cl)cc3)n1NC(=O)c1ccc(Cl)cc1)CCCC2 | 340 |
| CC(=O)Nn1c(Cc2c(NC(=O)CCl)sc3c2CCCC3)n[nH]c1=S | 689 |
| O=C(CSc1nnc(Cc2c(NC(=O)CCl)sc3c2CCCC3)n1NC(=O)c1ccccc1)NNC(=O)c1ccccc1 | 468 |
| CC(=O)Nn1c(Cc2c(NC(=O)CCl)sc3c2CCCC3)nnc1SCC(=O)NNC(=O)CCl | 452 |
| COC(=O)CSc1nnc(Cc2c(NC(=O)CCl)sc3c2CCCC3)n1NC(C)=O | 695 |
| Nn1c(S)nnc1CSc1nnc(Cc2c(NC(=O)CCl)sc3c2CCCC3)n1NC(=O)c1ccccc1 | 6180 |
